Data as given in patent publication US9273084B2, “Moenomycin analogs, methods of synthesis, and uses thereof” (priority 2012, dated 2016).

Assays:
E. coli MG1655 = assay: MIC assay, 96 well broth dilution with MTT staining; type: cell-based; design: unit not given beside the values; settings: LB, 35-37° C., 20 h
Description: (§1) A 96 well plate with 100 μL test medium in all wells was prepared by handheld multipipettor. A stock solution of the antibiotic or compound in DMSO (0.05˜10 mg/mL, 5 μL) and the same medium (95 μL) were put together into column one, where the compound concentration doubled the highest one to be tested. Two columns were necessary for each compound to check the reproducibility. The compound was diluted by adding 100 μL from column one to column two with a 50% volume mix done three times; diluting serially across the plate was continued.
(§2) The day before the assay was scheduled to be run, strains were suspended in the test media (Brain Heart Infusion (BHI) containing 0.1% casamino acids for S. aureus, S. epidermidis, and E. faecalis, Trypticase Soy Broth (TSB) containing 5% sheep blood for S. pneumoniae, and Lysogeny Broth (LB) for E. coli) and incubated overnight at 35-37° C. The suspension was diluted with the same media to 1%, 100 μL of which was added to each well of the MIC plate. The MIC plate was incubated at 35-37° C. for 20 h. A thiazolyl blue tetrazolium bromide (MTT) solution (1 mg/mL-water, 50 μL) was added into each well and the resulting MIC plate was incubated at 35-37° C. for a few hours to stain wells in which cell proliferated. Growth is also visible as any turbidity in wells.

S. aureus 13709 = assay: as above; type: cell-based; design: unit not given beside the values; settings: BHI containing 0.1% casamino acids, 35-37° C., 20 h
Description: as §1, §2

S. aureus 25923 = assay: as above; type: cell-based; design: unit not given beside the values; settings: S. aureus 25923 (second strain line); BHI containing 0.1% casamino acids; 35-37° C., 20 h
Description: as §1, §2

E. coli NR698 = type: cell-based; design: unit not given beside the values; settings: LB, 35-37° C., 20 h
Description: as §1, §2

[1] = Pharmacokinetics following IV and SC administration; type: in vivo; settings: for half-life: NCA analysis
Description: Curtailing the tail portion of Moenomycin A (MmA) led to shorter half-life. […] The clearance following IV administration was very low leading higher exposure (3 mL/hr/kg) and volume of distribution (Vss) was 0.5 L/kg.

Gram-positive organisms = settings: against Gram-positive organisms; cited from earlier work
E. faecalis 29212 = assay: MIC assay, 96 well broth dilution with MTT staining; type: cell-based; design: unit not given beside the values; settings: BHI containing 0.1% casamino acids, 35-37° C., 20 h
Description: as §1, §2

E. faecalis 33186 = assay: as above; type: cell-based; design: unit not given beside the values; settings: BHI containing 0.1% casamino acids, 35-37° C., 20 h
Description: as §1, §2

S. epidermidis 1228 = assay: as above; type: cell-based; design: unit not given beside the values; settings: BHI containing 0.1% casamino acids, 35-37° C., 20 h
Description: as §1, §2

S. epidermidis 700562 = assay: as above; type: cell-based; design: unit not given beside the values; settings: BHI containing 0.1% casamino acids, 35-37° C., 20 h
Description: as §1, §2

S. pneumoniae #1629 = assay: as above; type: cell-based; settings: TSB containing 5% sheep blood, 35-37° C., 20 h
Description: as §1, §2

S. pneumoniae 6303 = assay: as above; type: cell-based; settings: TSB containing 5% sheep blood, 35-37° C., 20 h
Description: as §1, §2

[2] = S. aureus 13709 (first strain line)
[3] = S. aureus 13709 (third strain line)

Structure (SMILES) | MIC (E. coli MG1655) | MIC (S. aureus 13709; [2]) | MIC (S. aureus 13709; [3]) | MIC (S. aureus 25923) | MIC (E. coli NR698) | clearance ([1]; IV administration (2 mpk)) | volume of distribution (Vss) ([1]; IV administration (2 mpk)) | half-life ([1]; IV administration (2 mpk)) | % SC bioavailability ([1]; SC (10 mpk) vs IV (2 mpk)) | half-life ([1]; SC administration (10 mpk)) | systemic exposure ([1]; following IV (2 mpk) and SC (10 mpk) administration) | potency compared with vancomycin (Gram-positive organisms) | MIC (E. faecalis 29212) | MIC (E. faecalis 33186) | MIC (S. epidermidis 1228) | MIC (S. epidermidis 700562) | MIC (S. pneumoniae #1629) | MIC (S. pneumoniae 6303)
C=C(C/C=C(\C)CCC=C(C)C)CCC(C)(C)/C=C/CC/C(C)=C/CO[C@@H](COP(=O)(O)O[C@H]1O[C@H](C(N)=O)[C@@](C)(O)[C@H](OC(N)=O)[C@H]1O[C@@H]1O[C@H](CO[C@@H]2O[C@H](CO)[C@@H](O)[C@H](O)[C@H]2O)[C@@H](O[C@@H]2O[C@H](C)[C@@H](O[C@@H]3O[C@H](C(=O)NC4=C(O)CCC4=O)[C@H](O)[C@H](O)[C@H]3O)[C@H](O)[C@H]2NC(C)=O)[C@H](O)[C@H]1NC(C)=O)C(=O)O [Moenomycin A] | 31 | 0.16 | 0.078 | 0.16 | 0.0098 | 3 mL/h/kg | 0.5 L/kg | 209 h | 89% | 180 h | significant systemic exposure | 10-1000 times | – | – | – | – | – | –
CC(=O)NC1C(OC2C(COC3OC(CO)C(O)C(O)C3O)OC(OC3C(OP(=O)(O)OCC(OCc4cccc(OCc5cccc(-c6cccc(C)c6)c5)c4)C(=O)O)OC(C(N)=O)C(C)(O)C3OC(N)=O)C(NC(C)=O)C2O)OC(C)C(OC2OC(C(=O)NC3=C(O)CCC3=O)C(O)C(O)C2O)C1O.N [1j, N1-[(2-Hydroxy-5-oxo-cyclopenten-1-yl)-(5S)-β-D-galactopyranuronamide]-(1→4)-2-acetamide-2,6-dideoxy-β-D-gluopyranosyl-(1→4)-[β-D-glucopyranosyl-(1→6)]-2-acetamido-2-deoxy-β-D-glucopyranosyl)-(1→2)-3-O-carbamoyl-1-O—{[(R)-2-carboxy-2-(3-((3′-methyl-[1,1′-biphenyl]-3-yl)methoxy)phenylmethan-1-yloxy)ethoxy]hydroxyphosphoryl}-4-C-methyl-α-D-glucopyranuronamide] | > 250 | >250 >250 >250 | >250 >250 >250 | >250 >250 >250 | 0.98 | – | – | – | – | – | – | – | >250 >250 | >250 >250 | 125 | > 250 | 16 | 16
CC(=O)NC1C(OC2C(COC3OC(CO)C(O)C(O)C3O)OC(OC3C(OP(=O)(O)OCC(OCC=C(C)CCC=C(C)CCC=C(C)C)C(=O)O)OC(C(N)=O)C(C)(O)C3OC(N)=O)C(NC(C)=O)C2O)OC(C)C(OC2OC(C(=O)NC3=C(O)CCC3=O)C(O)C(O)C2O)C1O.N [1c, N1-[(2-Hydroxy-5-oxo-cyclopenten-1-yl)-(5S)-β-D-galactopyranuronamide]-(1→4)-2-acetamide-2,6-dideoxy-β-D-gluopyranosyl-(1→4)-[β-D-glucopyranosyl-(1→6)]-2-acetamido-2-deoxy-β-D-glucopyranosyl)-(1→2)-3-O-carbamoyl-1-O—{[(R)-2-carboxy-2-((2Z,6E)-3,7,11-trimethyl-dodeca-2,6,10-trien-1-yloxy)ethoxy]hydroxyphosphoryl}-4-C-methyl-α-D-glucopyranuronamide] | > 250 | >250 >250 250 | >250 >250 250 | >250 >250 250 | 0.98 | – | – | – | – | – | – | – | 250 >250 | 250 >250 | >250 >250 | >250 >250 | 31 | 63
